Tests used:
Assay type in all cases: biochemical
[1] = target: T1, JAK3 (Homo sapiens, UniProt P52333); assay: JAK enzymatic assay (peptide mobility shift), JAK3; conditions: recombinant JAK3 1 nM, ATP 4 μM, 1 μM JAKtide peptide, 90 minutes
T1 construct: purchased Invitrogen Corporation, Madison, Wis; PV3855
T1 sequence (P52333 1-1124): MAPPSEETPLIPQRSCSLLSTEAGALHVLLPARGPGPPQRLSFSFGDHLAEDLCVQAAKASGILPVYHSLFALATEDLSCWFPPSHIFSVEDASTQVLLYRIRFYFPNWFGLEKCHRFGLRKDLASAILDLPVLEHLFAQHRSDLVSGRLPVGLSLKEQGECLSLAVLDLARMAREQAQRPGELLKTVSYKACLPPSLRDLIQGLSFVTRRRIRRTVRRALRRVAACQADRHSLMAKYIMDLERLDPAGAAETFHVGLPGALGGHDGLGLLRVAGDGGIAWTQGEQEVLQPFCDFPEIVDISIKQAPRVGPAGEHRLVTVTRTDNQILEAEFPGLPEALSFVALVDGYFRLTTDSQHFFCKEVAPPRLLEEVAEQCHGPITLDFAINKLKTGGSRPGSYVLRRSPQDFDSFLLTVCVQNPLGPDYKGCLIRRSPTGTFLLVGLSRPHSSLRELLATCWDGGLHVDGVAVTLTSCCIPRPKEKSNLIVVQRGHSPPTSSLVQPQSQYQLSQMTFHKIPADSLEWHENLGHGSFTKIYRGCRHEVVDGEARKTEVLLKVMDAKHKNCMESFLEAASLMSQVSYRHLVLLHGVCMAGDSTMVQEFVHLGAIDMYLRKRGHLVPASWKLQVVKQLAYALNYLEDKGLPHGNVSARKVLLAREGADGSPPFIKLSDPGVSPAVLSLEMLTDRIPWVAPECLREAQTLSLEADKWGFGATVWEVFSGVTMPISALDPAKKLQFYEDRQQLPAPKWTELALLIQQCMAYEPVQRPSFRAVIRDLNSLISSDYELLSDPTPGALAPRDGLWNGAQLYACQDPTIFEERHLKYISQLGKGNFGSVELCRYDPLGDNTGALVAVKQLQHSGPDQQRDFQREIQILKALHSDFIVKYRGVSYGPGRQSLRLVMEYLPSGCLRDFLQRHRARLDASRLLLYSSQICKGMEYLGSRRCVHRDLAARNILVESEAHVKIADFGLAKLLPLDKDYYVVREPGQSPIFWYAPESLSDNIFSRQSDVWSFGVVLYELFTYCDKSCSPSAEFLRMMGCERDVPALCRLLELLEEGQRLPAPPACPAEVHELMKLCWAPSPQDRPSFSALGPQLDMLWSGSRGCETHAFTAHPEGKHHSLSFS
Text: Recombinant JAK1 (Catalog Number PV4775), JAK2 (Catalog Number PV4210) and JAK3 (Catalog Number PV3855) were purchased from (Invitrogen Corporation, Madison, Wis.). Tyk2 (His-Tyk2 (888-1182, C936S, C1142S)) used in this study was expressed and purified at Pfizer Laboratories. Adenosine 5′-triphosphate (ATP) was obtained from (Sigma Chemical Company, St. Louis, Mo.). […] Coating Reagent 3 was purchased from (Caliper Life Sciences, Hopkinton, Mass.).
(§1) A peptide mobility shift assay was used to quantify the phosphorylation of the JAKtide (JAK2 and JAK3) or the IRS-1 peptide ([…] and Tyk2). Reactions were carried out in a 384-well plate (Matrical MP-101) in a 10 μL total volume. Reaction mixtures contained 20 mM HEPES, pH 7.4, 10 mM magnesium chloride, 0.01% bovine serum albumin (BSA), 0.0005% Tween-20, ATP (4 μM for JAK2 and JAK3, 40 μM for JAK1 and 7 μM for Tyk2)), 2% DMSO and 1 μM peptide substrate (JAKtide for JAK2 and JAK3 and IRS-1 peptide for JAK1 and Tyk2). Compounds were diluted serially in 100% dimethyl sulfoxide and tested in an 11 point dose response in duplicate or quadruplicate (200 nl of compound/DMSO was added per 10 μL reaction). The reactions were initiated by the addition of enzyme to the final concentration of 2 nM JAK2, 1 nM JAK3, 12 nM Tyk2 or 20 nM JAK1. The assay was run for 240 minutes for JAK1, 150 minutes for JAK2, 90 minutes for JAK3 and 70 minutes for Tyk2. The assays were stopped at the specified times with 20 uL of 140 mM HEPES, 22.5 mM EDTA and 0.15% Coating Reagent 3. The plates were placed on a LabChip 3000 (LC3000) instrument from (Caliper Life Sciences) to measure the formation of phosphorylated peptide. Data was analyzed using Hits Well Analyzer Software from (Caliper Life Sciences) to obtain the amount of product formed.
(§2) Data was then imported into an internal application where each data point is expressed as % inhibition based on uninhibited and no enzyme controls. Dose-response data is then fit using a 4 parameter logistic equation (Equation 1) to determine an IC50.
(§3) Where max is the fitted uninhibited value, min is the fitted complete inhibition value, and s is the slope factor.

[2] = target: T2, JAK1 (Homo sapiens, UniProt P23458); assay: JAK enzymatic assay (peptide mobility shift), JAK1; conditions: recombinant JAK1 20 nM, ATP 40 μM, 1 μM IRS-1 peptide, 240 minutes
T2 construct: purchased Invitrogen Corporation, Madison, Wis; PV4775
Text: (§4) Recombinant JAK1 (Catalog Number PV4775), JAK2 (Catalog Number PV4210) and JAK3 (Catalog Number PV3855) were purchased from (Invitrogen Corporation, Madison, Wis.). Tyk2 (His-Tyk2 (888-1182, C936S, C1142S)) used in this study was expressed and purified at Pfizer Laboratories. Adenosine 5′-triphosphate (ATP) was obtained from (Sigma Chemical Company, St. Louis, Mo.). The JAKtide peptide (peptide sequence, FITC-[…]) used for the JAK2 and JAK3 assays and the IRS-1 peptide (peptide sequence, 5-FAM-[…]) used for the JAK1 and Tyk2 assays were purchased from (American Peptide Company, Sunnyvale, Calif.). Coating Reagent 3 was purchased from (Caliper Life Sciences, Hopkinton, Mass.).
as §1, §2, §3

[3] = target: T3, JAK2 (Homo sapiens, UniProt O60674); assay: JAK enzymatic assay (peptide mobility shift), JAK2; conditions: recombinant JAK2 2 nM, ATP 4 μM, 1 μM JAKtide peptide, 150 minutes
T3 construct: purchased Invitrogen Corporation, Madison, Wis; PV4210
Text: as §4, §1, §2, §3

T2 sequence (P23458 whole entry): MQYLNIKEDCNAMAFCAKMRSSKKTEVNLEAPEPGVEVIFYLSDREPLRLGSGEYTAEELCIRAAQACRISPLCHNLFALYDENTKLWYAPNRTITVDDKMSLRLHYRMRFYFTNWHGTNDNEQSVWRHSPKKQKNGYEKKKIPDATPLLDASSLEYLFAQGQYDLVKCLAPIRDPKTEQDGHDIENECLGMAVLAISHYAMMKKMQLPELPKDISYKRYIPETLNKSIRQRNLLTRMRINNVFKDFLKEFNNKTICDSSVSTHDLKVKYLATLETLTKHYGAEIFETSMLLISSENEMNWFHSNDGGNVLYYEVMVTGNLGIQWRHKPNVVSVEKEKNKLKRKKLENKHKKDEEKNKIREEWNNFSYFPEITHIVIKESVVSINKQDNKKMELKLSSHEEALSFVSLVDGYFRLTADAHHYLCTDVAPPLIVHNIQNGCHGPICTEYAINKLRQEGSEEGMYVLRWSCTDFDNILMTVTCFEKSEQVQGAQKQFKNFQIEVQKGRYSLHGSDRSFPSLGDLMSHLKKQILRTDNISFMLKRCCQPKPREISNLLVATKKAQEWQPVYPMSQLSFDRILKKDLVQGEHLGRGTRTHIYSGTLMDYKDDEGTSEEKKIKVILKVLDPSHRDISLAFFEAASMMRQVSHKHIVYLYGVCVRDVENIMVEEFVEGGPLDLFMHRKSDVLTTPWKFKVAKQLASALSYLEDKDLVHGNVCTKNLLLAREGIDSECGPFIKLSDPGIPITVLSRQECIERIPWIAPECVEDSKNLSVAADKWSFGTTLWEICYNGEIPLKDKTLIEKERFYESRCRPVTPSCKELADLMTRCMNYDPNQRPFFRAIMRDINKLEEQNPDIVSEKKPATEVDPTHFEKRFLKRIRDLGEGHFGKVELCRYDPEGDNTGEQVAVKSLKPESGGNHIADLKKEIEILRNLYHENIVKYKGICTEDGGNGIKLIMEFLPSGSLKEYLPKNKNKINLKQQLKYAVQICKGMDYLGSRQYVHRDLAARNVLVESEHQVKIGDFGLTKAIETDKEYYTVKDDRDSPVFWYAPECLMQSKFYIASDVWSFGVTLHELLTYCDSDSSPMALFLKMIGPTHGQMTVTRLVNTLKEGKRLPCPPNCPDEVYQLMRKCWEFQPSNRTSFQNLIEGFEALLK
T3 sequence (O60674 whole entry): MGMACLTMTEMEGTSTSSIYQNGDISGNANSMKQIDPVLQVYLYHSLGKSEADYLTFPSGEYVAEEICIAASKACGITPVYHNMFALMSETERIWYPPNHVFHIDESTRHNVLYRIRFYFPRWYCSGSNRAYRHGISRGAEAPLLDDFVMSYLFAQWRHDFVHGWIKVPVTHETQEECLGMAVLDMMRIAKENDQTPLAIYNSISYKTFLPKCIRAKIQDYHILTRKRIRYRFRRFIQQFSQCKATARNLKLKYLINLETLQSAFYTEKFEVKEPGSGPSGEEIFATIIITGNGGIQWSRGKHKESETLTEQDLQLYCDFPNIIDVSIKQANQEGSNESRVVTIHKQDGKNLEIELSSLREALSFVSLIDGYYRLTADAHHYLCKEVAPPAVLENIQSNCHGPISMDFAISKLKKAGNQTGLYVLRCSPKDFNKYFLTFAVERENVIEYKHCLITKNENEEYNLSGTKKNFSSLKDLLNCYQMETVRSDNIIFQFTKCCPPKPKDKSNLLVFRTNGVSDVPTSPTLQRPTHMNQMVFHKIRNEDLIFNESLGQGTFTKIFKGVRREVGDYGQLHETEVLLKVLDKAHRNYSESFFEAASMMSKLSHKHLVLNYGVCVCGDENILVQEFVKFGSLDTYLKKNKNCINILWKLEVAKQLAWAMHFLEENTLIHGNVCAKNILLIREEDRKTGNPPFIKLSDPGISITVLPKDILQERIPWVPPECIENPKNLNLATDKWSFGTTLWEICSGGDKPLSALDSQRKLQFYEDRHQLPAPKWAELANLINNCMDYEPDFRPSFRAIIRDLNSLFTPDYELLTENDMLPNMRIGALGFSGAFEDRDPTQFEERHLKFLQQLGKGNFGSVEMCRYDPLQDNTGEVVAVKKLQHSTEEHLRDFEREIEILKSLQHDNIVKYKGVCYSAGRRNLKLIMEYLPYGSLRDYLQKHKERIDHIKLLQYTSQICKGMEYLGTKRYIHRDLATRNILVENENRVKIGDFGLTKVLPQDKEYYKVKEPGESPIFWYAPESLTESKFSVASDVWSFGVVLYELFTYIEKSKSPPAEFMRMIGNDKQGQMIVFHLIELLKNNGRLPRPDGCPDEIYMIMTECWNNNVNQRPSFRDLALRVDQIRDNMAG

CN(c1ncnc2[nH]ccc12)[C@H]1CC[C@@H](CS(=O)(=O)NCc2ccccc2)CC1 [Example 54, N-benzyl-1-{cis-4-[methyl(7H-pyrrolo[2,3-d]pyrimidin-4-yl)amino]cyclohexyl}-methanesulfonamide] was tested, and the IC50 [1] was 162 nM, the IC50 [2] was 19.3 nM and the IC50 [3] was 54.2 nM.

Work on CN(c1ncnc2[nH]ccc12)[C@H]1CC[C@H](CS(=O)(=O)NCC(C)(F)c2ccc(F)cc2)CC1 (stereo partly drawn) [Example 8, N-[2-fluoro-2-(4-fluoro-phenyl)propyl]-1-{trans-4-[methyl(7H-pyrrolo[2,3-d]-pyrimidin-4-yl)amino]-cyclohexyl}-methanesulfonamide] yielded an IC50 [1] of 403 nM, an IC50 [2] of 6.05 nM and an IC50 [3] of 32.3 nM.

Molecule CN(c1ncnc2[nH]ccc12)[C@H]1CC[C@H](CS(=O)(=O)Nc2ccc(CC#N)cc2)CC1 [Example 20, N-[4-(cyanomethyl)phenyl]-1-{trans-4-[methyl(7H-pyrrolo[2,3-d]pyrimidin-4-yl)amino]cyclohexyl}methane-sulfonamide] has an IC50 [1] of 96.1 nM, an IC50 [2] of 9.58 nM and an IC50 [3] of 38.1 nM.

CN(c1ncnc2[nH]ccc12)[C@H]1CC[C@H](CS(=O)(=O)Nc2ccn[nH]2)CC1 [Example 22, 1-{trans-4-[methyl(7H-pyrrolo[2,3-d]pyrimidin-4-yl)amino]cyclohexyl}-N-1H-pyrazol-5-yl-methanesulfonamide] was tested, and the IC50 [1] was 241 nM, the IC50 [2] was 15.2 nM and the IC50 [3] was 32.4 nM.

Molecule CN(c1ncnc2[nH]ccc12)[C@H]1CC[C@H](CS(=O)(=O)NCCc2ccc(Cl)cc2)CC1 [Example 31, N-[2-(4-chlorophenyl)ethyl]-1-{trans-4-[methyl(7H-pyrrolo[2,3-d]pyrimidin-4-yl)amino]cyclohexyl}-methanesulfonamide] has an IC50 [1] of 154 nM, an IC50 [2] of 3.67 nM and an IC50 [3] of 19 nM.

In the case of CN(c1ncnc2[nH]ccc12)[C@H]1CC[C@H](CS(=O)(=O)N[C@@H]2CCC[C@@H]2c2ccc(F)cc2)CC1 [Example 46, N-[(1R,2R)-2-(4-fluoro-phenyl)cyclopentyl]-1-{trans-4-[methyl(7H-pyrrolo[2,3-d]pyrimidin-4-yl)amino]cyclohexyl}-methanesulfonamide], the IC50 [1] is reported as 355 nM, the IC50 [2] is reported as 15.6 nM and the IC50 [3] is reported as 18.4 nM.

CN(c1ncnc2[nH]ccc12)[C@H]1CC[C@H](CS(=O)(=O)NC2CC2)CC1 [Example 1, N-cyclopropyl-1-{trans-4-[methyl(7H-pyrrolo[2,3-d]pyrimidin-4-yl)amino]cyclohexyl}methanesulfonamide] showed an IC50 [1] of 224 nM, an IC50 [2] of 10 nM and an IC50 [3] of 45.4 nM.

CN(c1ncnc2[nH]ccc12)[C@H]1CC[C@H](CS(=O)(=O)NCCc2ccccc2)CC1 [Example 15, 1-{trans-4-[methyl(7H-pyrrolo-[2,3-d]pyrimidin-4-yl)amino]-cyclohexyl}-N-(2-phenylethyl)-methanesulfonamide] was tested, and the IC50 [1] was 87.8 nM, the IC50 [2] was 2.87 nM and the IC50 [3] was 12 nM.

In the case of Cc1cccc(CCNS(=O)(=O)C[C@H]2CC[C@H](N(C)c3ncnc4[nH]ccc34)CC2)n1 [Example 50, N-[2-(6-methylpyridin-2-yl)ethyl]-1-{trans-4-[methyl(7H-pyrrolo[2,3-d]-pyrimidin-4-yl)amino]-cyclohexyl}-methanesulfonamide], the IC50 [1] is reported as 633 nM, the IC50 [2] is reported as 21.6 nM and the IC50 [3] is reported as 80.6 nM.

With CN(c1ncnc2[nH]ccc12)[C@H]1CC[C@@H](CS(=O)(=O)NCCc2ccccc2)CC1 [Example 53, 1-{cis-4-[methyl(7H-pyrrolo[2,3-d]pyrimidin-4-yl)amino]cyclohexyl}-N-(2-phenylethyl)-methanesulfonamide] the IC50 [1] was 119 nM, the IC50 [2] was 11.5 nM and the IC50 [3] was 34.7 nM.

CN(c1ncnc2[nH]ccc12)[C@H]1CC[C@H](CS(=O)(=O)NC2(Cc3ccccc3)CCC2)CC1 [Example 44, N-(1-benzylcyclobutyl)-1-{trans-4-[methyl(7H-pyrrolo-[2,3-d]pyrimidin-4-yl)amino]-cyclohexyl}methane-sulfonamide] gave an IC50 [1] of 641 nM, an IC50 [2] of 15.1 nM and an IC50 [3] of 112 nM.

CN(Cc1cccc(N)n1)S(=O)(=O)C[C@H]1CC[C@H](N(C)c2ncnc3[nH]ccc23)CC1 [Example 29, N-[(6-aminopyridin-2-yl)methyl]-N-methyl-1-{trans-4-[methyl(7H-pyrrolo[2,3-d]pyrimidin-4-yl)amino]cyclohexyl}-methanesulfonamide] gave an IC50 [1] of 514 nM, an IC50 [2] of 16.7 nM and an IC50 [3] of 51 nM.

CN(c1ncnc2[nH]ccc12)[C@H]1CC[C@H](CS(=O)(=O)NCCc2ccccc2F)CC1 [Example 14, N-[2-(2-fluorophenyl)ethyl]-1-{trans-4-[methyl(7H-pyrrolo[2,3-d]pyrimidin-4-yl)amino]cyclohexyl}methanesulfonamide] showed an IC50 [1] of 148 nM, an IC50 [2] of 4.65 nM and an IC50 [3] of 20.5 nM.

In the case of COc1ccccc1CCNS(=O)(=O)C[C@H]1CC[C@H](N(C)c2ncnc3[nH]ccc23)CC1 [Example 5, N-[2-(2-methoxyphenyl)-ethyl]-1-{trans-4-[methyl-(7H-pyrrolo[2,3-d]pyrimidin-4-yl)amino]cyclohexyl}-methanesulfonamide], the IC50 [1] is reported as 188 nM, the IC50 [2] is reported as 3.78 nM and the IC50 [3] is reported as 17 nM.

Cc1ccc(CCNS(=O)(=O)C[C@H]2CC[C@H](N(C)c3ncnc4[nH]ccc34)CC2)cc1 [Example 7, N-[2-(4-methylphenyl)-ethyl]-1-{trans-4-[methyl-(7H-pyrrolo[2,3-d]pyrimidin-4-yl)amino]cyclohexyl}-methanesulfonamide] gave an IC50 [1] of 137 nM, an IC50 [2] of 4.44 nM and an IC50 [3] of 11.3 nM.

For CN(Cc1cccnc1)S(=O)(=O)C[C@H]1CC[C@H](N(C)c2ncnc3[nH]ccc23)CC1 [Example 35, N-methyl-1-{trans-4-[methyl(7H-pyrrolo[2,3-d]-pyrimidin-4-yl)amino]-cyclohexyl}-N-(pyridin-3-ylmethyl)-methanesulfonamide], the IC50 [1] was 622 nM, the IC50 [2] was 6.85 nM and the IC50 [3] was 76.1 nM.

Source: patent US8372854B2, “Pyrrolo[2,3-D]pyrimidine compounds” (Pfizer Inc., priority 2009, dated 2013)
